These results are taken from patent publication US20200129499A1, “COMBINATION OF TASQUINIMOD OR A PHARMACEUTICALLY ACCEPTABLE SALT THEREOF AND A PD-1 AND/OR PD-L1 INHIBITOR, FOR USE AS A MEDICAMENT” (ACTIVE BIOTECH AB, priority 2015, published 2020).

Common to all, as to assay type: in vivo, mouse
Assay [1] has as its system MBT-2 tumors. Put plainly: Gene expression profiling (qRT-PCR) in MBT-2 tumors after 10 days of tasquinimod (Example 2). The settings on record: 30 mg/kg p.o. twice daily from day 10 for 10 days; FIG. 2. As to the method:
FIG. 2: Gene expression profiling in MBT-2 tumors derived from mice treated with 30 mg/kg p.o. of tasquinimod twice daily from day 10 after tumor inoculation. Tasquinimod treatment was carried out for 10 days. Data are represented as fold change of treated tumors compared to control tumors.
Mice were treated as described in Example 1. After 10 days of treatment with tasquinimod, i.e. 20 days after tumor inoculation, RNA from tumors was isolated from 100 μηη of OCT-embedded tumor cryosections using Trizol Reagent (Life Technologies). RNA concentration and purity was determined through measurement of A260/A280 ratios with a NanoDrop ND-1000 spectrophotometer. RNA integrity was checked using the Agilent 2100 Bioanalyzer. cDNA was prepared using High-Capacity cDNA Reverse Transcription Kit (LifeTechnologies) following the manufacturer's instructions. Q-PCR was performed with a […] PCR-protocol (95° C. for 10 min, followed by 40 cycles of 95° C. for 15 sec and 60° C. for 1 min) using Taqman gene expression (LifeTechnologies). Expression levels were calculated as normalized ACt expression values between target gene and the two “housekeeping” and Hmbs and Cyclophilin A for Taqman technology. Data were presented as fold induction (2AACt) of treated tumors compared to control tumors. The probes used in the experiments are the following: […]

Assay [2] deals with MBT-2 tumors. Kind of assay: Subcutaneous MBT-2 tumor growth in mice, initial combination study (Example 1). As to the method: Six to seven-week old C3H/HeN male mice were purchased from JANVIER Labs. MBT-2, a mouse bladder cancer cell line (M. S. Soloway., Intravesical and systemic chemotherapy in the management of superficial bladder cancer, Urol. Clin. North Am. 11 (4):623-635, 1984), was provided from JCRB Cell Bank and was cultured in Eagle's minimal essential medium (Life Technologies) supplemented with 10% fetal bovine serum.
1×10^6 cells were injected subcutaneously into the flanks of mice and were allowed to grow until tumors reached a volume between 40 and 130 mm^3 (around day 10-1 1 post tumor cell inoculation).
Tumor volumes in mm^3 were assessed by caliper measurements and were calculated by the formula=(Width)^2×Length 12.
As mentioned in Table 2, the mice were treated with tasquinimod (30 mg/kg) p.o. (per os, i.e. oral administration) twice a day. For the blockade of PD-L1, 200 μg of the […] (clone 10F.9G2; Bio-XCell) was administered i.p. (intraperitoneally) to mice every 3 days. All studies were approved by the Bioethics committee of IPSEN (CE2A) and by the French Ministry of Agriculture and Fisheries' veterinary services.

In the next assay the test system is PD-L1 in CD1 1b+ cells. Kind of assay: FACS analysis of PD-L1 on tumor CD11b+ myeloid cells. As to the method:
FIG. 3: Median Fluorescence Intensity (MFI) of PD-L1 in CD1 1b+ cells derived from mice bearing tumors treated with tasquinimod. The mice were treated with 30 mg/kg p.o. of tasquinimod twice daily from day 10 after tumor inoculation. Tasquinimod treatment was carried out for 7 days. This analysis was done by cytometry.
FIG. 4: Treatment with tasquinimod had no effect on established MBT-2 tumor growth and induced an alteration in the profile of PD-1/PD-L1 axis. (A) Growth curves and (B) tumor weight of MBT-2 tumors treated with tasquinimod at 30 mg/kg (oral gavage, twice daily) after randomization at day 11 post tumor-cell inoculation (n=12). Mice were sacrificed. Tumors were harvested, digested and then subjected to surface staining. […] (D) Quantitative data of the Median Fluorescence Intensity of PD-L1 gated on infiltrating myeloid cells CD1 1b+ (*, P<0.05; Mann-Whitney test, n=5 mice per group).
Mice were treated as described in Example 1. […] Cells were analyzed by Fortessa X-20 (BD Biosciences).
Single cell suspensions were prepared from tumors by incubating the tumors cross-cut into small pieces in 8 mg/ml Collagenase IV (Life Technologies) and 0.1% DNase (Sigma-Aldrich) for 45 min at 37° C. […] Data were analyzed using FlowJo software (Tree Star Inc.). […] This procedure yielded predominantly CD1 1b+ cells with purity greater than 80% as assessed by FACS analysis.
For orientation: Flow cytometry measures light scatter and fluorescence of single cells or particles in a stream.

As to `COc1cccc2c1c(O)c(C(=O)N(C)c1ccc(C(F)(F)F)cc1)c(=O)n2C` [tasquinimod, 4-hydroxy-5-methoxy-N,1-dimethyl-2-oxo-N-[4-(trifluoromethyl)phenyl]-1,2-dihydroquinoline-3-carboxamide], the “expression of 11-12b” value in the assay with MBT-2 tumors [1] was “increase”. Moreover, the “expression of CD206, a M2 macrophage marker” value in the assay with MBT-2 tumors [1] is given as “decrease”. In the assay on MBT-2 tumors [1], the “expression of nos2” value is “increase”. Besides, the “mRNA expression of Cd274 in the tumor microenvironment” value with MBT-2 tumors [1] is recorded as “increase”. Besides, the “Average of tumor volumes” value was found to be 0 mm^3 in the assay with MBT-2 tumors [2] (day 0 post tumor cell inoculation (before treatment)); 49 mm^3 in the assay with MBT-2 tumors [2] (day 10 post tumor cell inoculation); 61 mm^3 in the assay with MBT-2 tumors [2] (day 11 post tumor cell inoculation); 180 mm^3 with MBT-2 tumors [2] (day 13 post tumor cell inoculation); 225 mm^3 in the assay on MBT-2 tumors [2] (day 14 post tumor cell inoculation); 309 mm^3 in the assay on MBT-2 tumors [2] (day 15 post tumor cell inoculation). Moreover, the “Average of tumor volumes” value with MBT-2 tumors [2] (day 17 post tumor cell inoculation) came to 390 mm^3. Further, the “impact on tumor growth of MBT-2 tumors” value in the assay on MBT-2 tumors [2] (tasquinimod 30 mg/kg p.o. twice a day, antibody 200 μg i.p. every 3 days, from day 10-11) is “slight non-significant impact”. For the same compound, the “median fluorescence intensity of PD-L1 expressed on myeloid cells” value with PD-L1 in CD1 1b+ cells (30 mg/kg p.o. twice daily from day 10 for 7 days, FIG. 3) is reported as “increase”. Moreover, in the assay with PD-L1 in CD1 1b+ cells (established MBT-2 tumors, tasquinimod 30 mg/kg, day 15, FIGS. 4C and D), the “expression of PD-L1 gated on CD1 1b+ cells” value is “increase”.
